Molecules are shown by their SMILES.

Assay [1] relates to rat brain cortex neurotransmitters. Description: effects of an HCA extract and fluoxetine on rat brain cortex neurotransmitters (reverse phase HPLC with electrochemical detection). It counts as in vivo. The conditions noted are these: for decrease in cortex HIAA / decrease in cortex 5-HT / decrease in DA / decrease in cortex HVA: 15 mg/kg per day oral; for decrease in cortex HIAA / decrease in DA / decrease in cortex HVA / increase in DOPAC / increase in cortex DA / increase in cortex 5-HT: p<0.05; for increase in DOPAC / increase in cortex DA / increase in cortex 5-HT: after 90 days. The procedure:
[…] The 5% HCA dose corresponds to 25-times the recommended dose of HCA. Animals were euthanized after 30, 60 and 90 days. Brain cortices were analyzed for serotonin (5-HT), its metabolite 5-hydroxyindoleacetic acid (HIAA), dopamine (DA), and its metabolites 3, 4-dihydroxyphenylacetic acid (DOPAC) and homovanillic acid (HVA) content utilizing reverse phase HPLC with electrochemical detection.

The subject of assay [2] is isolated rat brain cortex. The note with it: cited from earlier work.
The mark [3] stands for this setting: first of three values (day 30 by analogy with b27).
[4] abbreviates: second of three values (day 60 by analogy with b27).
Where [5] appears, read: third of three values (day 90 by analogy with b27).

Consider `CNCCC(Oc1ccc(C(F)(F)F)cc1)c1ccccc1` (centres unmarked) [fluoxetine, reference compound], for which the “decrease in cortex HIAA” value in assay [1] (30 days post-treatment) amounted to 19%; in assay [1] (60 days post-treatment), 15%; in assay [1] (90 days post-treatment), 17%. In addition, the “decrease in cortex 5-HT” value is recorded as 9% in assay [1] (day 30, p<0.05); 7% in assay [1] (day 60, p<0.05); 8% in assay [1] (day 90, p<0.05). The “decrease in DA” value in assay [1] (setting [3]) turned out to be 18%; in assay [1] (setting [4]), 15%; in assay [1] (setting [5]), 19%. For the same compound, the figures for the “decrease in cortex HVA” value in assay [1] (setting [3]), in assay [1] (setting [4]) and in assay [1] (setting [5]) were 17%, 13% and 14%, respectively. In addition, the “changes in cortex DOPAC” value in assay [1] (all fluoxetine groups (15 mg/kg per day oral; 30, 60, 90 days)) was “No changes”.
As to `O=C(O)CC(O)(C(=O)O)C(O)C(=O)O` (single isomer, unassigned; (-)) [HCA, (−)-hydroxycitric acid], the “efflux of 5-HT” value in assay [2] (HCA applied on its own) is on record as “concentration-dependent increase”. Further, the “effect on baseline of spontaneous tritium efflux” value in assay [2] was “altered the baseline”. In addition, in assay [2], the “effect on potassium-evoked release of 5-HT” value is reported as “no significant effect”. Besides, the entries for the “increase in DOPAC” value in assay [1] (HCA 0.02% oral), in assay [1] (HCA 2% of diet oral) and in assay [1] (HCA 5% of diet oral) were 23%, 26% and 29%, respectively. Further, the results for the “increase in cortex DA” value in assay [1] (HCA 0.02% oral), in assay [1] (HCA 2% of diet oral) and in assay [1] (HCA 5% of diet oral) were 10%, 15% and 18%, respectively. In addition, the “increase in cortex HVA” value in assay [1] (HCA 0.02% oral, day 90, p<0.05) was 12%; in assay [1] (HCA 2% of diet oral, day 90, p<0.05), 15%; in assay [1] (HCA 5% of diet oral, day 90, p<0.05) it was 13%. In addition, the “increase in cortex 5-HT” value is 11% in assay [1] (HCA 0.2% of diet (10 mg per day) oral), 9% in assay [1] (HCA 2% of diet (100 mg per day) oral) and 12% in assay [1] (HCA 5% of diet (250 mg per day) oral). The “changes in HIAA” value in assay [1] (any of the HCA treatment groups (0.2, 2, 5% of diet; 30, 60, 90 days)) is “No changes”.

The record behind these values is US20050215644A1, “Methods for increasing neurotransmitter levels using hydroxycitric acid” (InterHealth Nutraceuticals, Inc., priority 2004, published 2005).
